By MIC is commonly meant the lowest concentration that inhibits growth of the organism. As a reminder, the IC50 is the concentration that gives 50% inhibition.

Converted amounts (≈) assume the structure as drawn. Read-outs that look alike come from different tables or passages of the source. Marks after values point to notes of the source that are not given here.

Consider five compounds from article PMC8126209, “Phytochemical Profile and In Vitro Antioxidant, Antimicrobial, Vital Physiological Enzymes Inhibitory and Cytotoxic Effects of Artemisia jordanica Leaves Essential Oil from Palestine” (Molecules, 2021).

One assay relates to K. pneumoniae. The assay can be described thus: Broth microdilution MIC, K. pneumoniae. In kind it is cell-based, Klebsiella pneumonia (ATCC 13883). The note with it: Klebsiella pneumoniae. As to the method: (§1) The antimicrobial activity of the (AJ) EO used in this study was estimated using the broth microdilution method. The (AJ) EO was dissolved in DMSO to a concentration of 200 µg/mL. The produced solution was serially micro-diluted (2-fold) 10 times in sterile Mueller–Hinton broth (Thermo Fisher Scientific, Waltham, MA, USA). The dilution processes were performed under aseptic conditions in 96-well plates. In the micro-wells that were assigned to evaluate the antibacterial activity of (AJ) EO, micro-well number 11 contained plant-free Mueller–Hinton broth, which was used as a positive control for microbial growth. Micro-well number 12 contained plant-free and microbial-free Mueller–Hinton broth, which was used as a negative control for microbial growth. Micro-wells numbered 1–11 were inoculated aseptically with the test microbes. The (AJ) EO antimicrobial activity was determined in triplicate. All the inoculated plates were incubated at 35 °C. Regarding C. albicans, the same method was used but using RPMI media (Thermo Fisher Scientific, Waltham, MA, USA) instead of Mueller–Hinton broth. The incubation period lasted for about 18–24 h for those plates inoculated with the test bacterial strains and for about 48 h for those plates inoculated with C. albicans.
(In broth dilution the organism is exposed to a series of concentrations in liquid medium.)

For a further assay, the system named is P. vulgaris. The assay is described as follows: Broth microdilution MIC, P. vulgaris. In kind it is cell-based, Proteus vulgaris (ATCC 8427). Here is the method: as §1, with “The antibacterial effect of (AJ) EO was determined utilizing several strains of bacteria, which were obtained from the American Type Culture Collection (ATCC): Pseudomonas aeruginosa (ATCC 9027), Escherichia coli (ATCC 25922), Klebsiella pneumonia (ATCC 13883), Proteus vulgaris (ATCC 8427), and Staphylococcus aureus (ATCC 25923), and from a diagnostically confirmed methicillin-resistant Staphylococcus aureus (MRSA). The antifungal activity of (AJ) EO was evaluated against the growth of Candida albicans (ATCC 90028). The antimicrobial” for “The antimicrobial”, “C. albicans. […]” for “C. albicans.”

The next assay concerns MRSA. The assay is described as follows: Broth microdilution MIC, MRSA. In kind it is cell-based, methicillin-resistant Staphylococcus aureus. Also noted: key: R: Resistant. Here is the method: as §1
The test system of a further assay is P. aeruginosa. The assay can be described thus: Broth microdilution MIC, P. aeruginosa. In kind it is cell-based, Pseudomonas aeruginosa (ATCC 9027). Also noted: key: R: Resistant. Here is the method: The antibacterial effect of (AJ) EO was determined utilizing several strains of bacteria, which were obtained from the American Type Culture Collection (ATCC): Pseudomonas aeruginosa (ATCC 9027), Escherichia coli (ATCC 25922), Klebsiella pneumonia (ATCC 13883), Proteus vulgaris (ATCC 8427), and Staphylococcus aureus (ATCC 25923), and from a diagnostically confirmed methicillin-resistant Staphylococcus aureus (MRSA). The antifungal activity of (AJ) EO was evaluated against the growth of Candida albicans (ATCC 90028). The antimicrobial activity of the (AJ) EO used in this study was estimated using the broth microdilution method. The (AJ) EO was dissolved in DMSO to a concentration of 200 µg/mL. The produced solution was serially micro-diluted (2-fold) 10 times in sterile Mueller–Hinton broth (Thermo Fisher Scientific, Waltham, MA, USA). The dilution processes were performed under aseptic conditions in 96-well plates. In the micro-wells that were assigned to evaluate the antibacterial activity of (AJ) EO, micro-well number 11 contained plant-free Mueller–Hinton broth, which was used as a positive control for microbial growth. Micro-well number 12 contained plant-free and microbial-free Mueller–Hinton broth, which was used as a negative control for microbial growth. […] The (AJ) EO antimicrobial activity was determined in triplicate. […]

Another assay deals with T1, human recombinant COX-2 (Homo sapiens, UniProt P35354).
T1 construct: purchased Cayman Chemical 560131
T1 sequence (P35354 18-604): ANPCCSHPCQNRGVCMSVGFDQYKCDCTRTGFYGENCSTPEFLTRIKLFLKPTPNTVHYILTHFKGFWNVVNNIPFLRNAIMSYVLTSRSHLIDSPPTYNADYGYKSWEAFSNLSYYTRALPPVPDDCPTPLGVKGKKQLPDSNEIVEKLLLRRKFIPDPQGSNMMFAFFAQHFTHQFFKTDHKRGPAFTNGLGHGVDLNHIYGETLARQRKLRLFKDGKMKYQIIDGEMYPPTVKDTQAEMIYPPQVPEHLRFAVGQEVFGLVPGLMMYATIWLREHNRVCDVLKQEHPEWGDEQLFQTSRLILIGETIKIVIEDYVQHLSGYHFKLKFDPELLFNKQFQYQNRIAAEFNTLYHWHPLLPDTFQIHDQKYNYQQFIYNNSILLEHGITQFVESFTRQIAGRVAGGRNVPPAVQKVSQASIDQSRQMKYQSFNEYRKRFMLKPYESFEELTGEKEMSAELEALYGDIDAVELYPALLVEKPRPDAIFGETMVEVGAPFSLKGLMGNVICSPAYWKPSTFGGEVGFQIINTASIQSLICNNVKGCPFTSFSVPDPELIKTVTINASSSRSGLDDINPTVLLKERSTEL
The assay is described as follows: COX inhibitor screening assay kit, COX-2. In kind it is biochemical. The conditions noted are these: calculated from two concentrations (350 and 50 µg/mL); read-out: IC50 COX-2. The text has this: The percentage inhibition of the two concentrations was used to calculate the IC50 [69, 70].

Another assay addresses T2, bovine COX-1 (Ovis aries, UniProt P05979).
T2 construct: purchased Cayman Chemical 560131
T2 sequence (P05979 25-600): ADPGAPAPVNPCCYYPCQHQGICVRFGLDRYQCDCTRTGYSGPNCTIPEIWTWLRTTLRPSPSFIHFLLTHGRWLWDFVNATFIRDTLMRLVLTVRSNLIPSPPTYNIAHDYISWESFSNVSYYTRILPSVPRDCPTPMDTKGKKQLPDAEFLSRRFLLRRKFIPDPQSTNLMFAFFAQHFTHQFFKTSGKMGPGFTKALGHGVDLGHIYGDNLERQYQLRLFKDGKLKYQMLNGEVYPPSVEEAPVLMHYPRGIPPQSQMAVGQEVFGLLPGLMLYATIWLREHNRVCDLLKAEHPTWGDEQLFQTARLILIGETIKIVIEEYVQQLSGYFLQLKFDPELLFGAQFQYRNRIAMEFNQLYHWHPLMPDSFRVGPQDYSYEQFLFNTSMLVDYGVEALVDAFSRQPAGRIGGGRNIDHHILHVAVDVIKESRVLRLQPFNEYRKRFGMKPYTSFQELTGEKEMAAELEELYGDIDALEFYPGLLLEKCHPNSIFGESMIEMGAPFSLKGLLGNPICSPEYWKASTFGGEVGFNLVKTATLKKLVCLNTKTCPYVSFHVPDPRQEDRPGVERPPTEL
The assay is described as follows: COX inhibitor screening assay kit, COX-1. In kind it is biochemical. The conditions noted are these: calculated from two concentrations (350 and 50 µg/mL); read-out: IC50 COX-1. As to the method: The ability of the (AJ) EO to prevent the conversion of arachidonic acid to PGH2 by bovine COX-1 and human recombinant COX-2 was assessed using a COX inhibitor screening assay kit (Item No: 560131, Cayman Chemical, Ann Arbor, MI, USA) according to manufacturer’s guidelines. The 50% inhibitory concentration (IC50) of COX-1/COX-2 activity of the tested samples was determined, with the assay run, in duplicate, with two concentrations (350 and 50 µg/mL). A standard curve of eight concentrations of prostaglandin, a non-specific binding sample, and a maximum binding sample was used, as instructed in the kit manual, to determine the inhibition of the sample plant, applying the generated multiple regression best-fit line. The percentage inhibition of the two concentrations was used to calculate the IC50 [69, 70].

A short description of assay [1]: DPPH free radical scavenging assay. The note with it: 30 min, 517 nm. As to the method:
One hundred mg of (AJ) EO was dissolved in 100 mL of methanol to create the stock solution (1 mg/mL). The obtained solution was mixed with methanol to obtain different concentrations (2, 3, 5, 7, 10, 20, 30, 40, 50, 80, and 100 μg/mL). One milliliter of stock solution and 1 mL of methanol were mixed with 1 mL of DPPH (Sigma-Aldrich, Steinheim, Germany). Then, the solution was kept in the dark at room temperature for 30 min. However, by replacing the plant EO solution with methanol, the blank solution was prepared. Trolox (Sigma-Aldrich, St. Louis, MO, USA) was utilized as a positive control, and the absorbance for all obtained samples was measured by spectrophotometer (Shimadzu-UV-1800, Kyoto, Japan) at 517 nm. The DPPH inhibitory potentials were estimated utilizing the following formula:I (%) = [ABSblank − ABStest]/[ABSblank]) × 100%(2) where I (%) is the percentage of DPPH inhibitory potentials.
For orientation: The DPPH test is a chemical assay of radical scavenging.

The next assay deals with HeLa. The assay is described as follows: MTS cytotoxicity assay, HeLa. In kind it is cell-based. The conditions noted are these: Homo sapiens, 24 h, read-out: IC50 against HeLa. As to the method:
(§2) The liver (Hep3B), breast (MCF-7), Human cervical (HeLa), and Colon (CACO-2) tumor cell lines were cultivated separately in RPMI-1640 media (Sigma, Norwich, UK), which was treated with 1% L-glutamine (Sigma, London, UK), 1% penicillin/streptomycin antibiotics (BI, New Delhi, India), and 10% fetal bovine serum. Cancer cells were grown at 37 °C in a humidified atmosphere with 5% CO2. Cells were seeded at 2.6 × 10^4 cells/well in a 96-well plate. […] Cell viability was evaluated by the CellTilter 96® Aqueous One Solution Cell Proliferation (MTS) Assay according to the manufacturer’s directions (Promega Corporation, Madison, WI, USA). At the end of the treatment, 20 μL of MTS solution per 100 μL of media was added to each well, and the solutions in the well plates were incubated at 37 °C for 2 h. The absorbance was measured at 490 nm.

The subject of a further assay is Caco-2. The assay can be described thus: MTS cytotoxicity assay, Caco-2. In kind it is cell-based. The note with it: Homo sapiens, 24 h, read-out: IC50 against Caco-2. Here is the method:
as §2
On the technique in general: Formazan colour is commonly taken as a measure of viable cells.

Another assay deals with HepG2. The assay is described as follows: MTS cytotoxicity assay, HepG2. In kind it is cell-based. The note with it: Homo sapiens, 24 h, text names Hep3B, read-out: IC50 against HepG2.
Setting [2] is: Proteus vulgaris, read-out: MIC.

Consider `CC1(C)S[C@@H]2[C@H](NC(=O)[C@H](N)c3ccccc3)C(=O)N2[C@H]1C(=O)O` [Ampicillin, ampicillin], for which the MIC in the assay with K. pneumoniae is 1 µg/mL (≈ 2.86 µM); with P. vulgaris (setting [2]) it was 18 µg/mL (≈ 51.5 µM); in the assay with MRSA, “R”; in the assay with MRSA (listed as ampicillin) it was “does not have antibacterial activity”; with P. aeruginosa, “R”.

For `O=C(O)c1cn(C2CC2)c2cc(N3CCNCC3)c(F)cc2c1=O` [Ciprofloxacin, ciprofloxacin], the MIC in the assay with P. vulgaris and in the assay on P. vulgaris (setting [2]) was 15 µg/mL (≈ 45.3 µM) each time.

On to `CC(C(=O)O)c1cccc(C(=O)c2ccccc2)c1` (stereo not shown) [Ketoprofen], for which the potency estimated from few doses at human recombinant COX-2 was 40.2 ± 1.09 µg/mL (≈ 158 µM); on bovine COX-1, 7.89 ± 0.96 µg/mL (≈ 31 µM).

For `Cc1c(C)c2c(c(C)c1O)CCC(C)(C(=O)O)O2` (stereo not shown) [Trolox], in assay [1], the “IC50 against DPPH” value is on record as 1.58 ± 1.49 ^a µg/mL.

`COc1cccc2c1C(=O)c1c(O)c3c(c(O)c1C2=O)C[C@@](O)(C(=O)CO)C[C@@H]3O[C@H]1C[C@H](N)[C@H](O)[C@H](C)O1` [doxorubicin]: the concentration for half-maximal inhibition (IC50) amounted to 0.84 ± 0.03 µg/mL (≈ 1.55 µM) with HeLa, 0.37 ± 0.08 µg/mL (≈ 0.681 µM) in the assay on Caco-2 and 1.21 ± 0.05 µg/mL (≈ 2.23 µM) in the assay on HepG2.
